Measured values as given in article PMC11289669, “BAR502/fibrate conjugates: synthesis, biological evaluation and metabolic profile” (Frontiers in Chemistry, 2024).
Entries after “also recorded” stand apart in the source; their conditions may differ.

Experiments:
[1] = test system: 3T3-L1 cells; assay: 3T3-L1 preadipocyte differentiation, adipogenic marker gene expression (qRT-PCR); assay type: cell-based, murine; details: differentiation medium (DIM), 7 days, 10 µM
Method: The 3T3-L1 cells were cultured in Dulbecco’s modified Eagle’s medium (DMEM; Euroclone), supplemented with 10% fetal bovine serum, 1% l-glutamine, 100 U/mL penicillin, and 100 μg/mL streptomycin, at 37 °C. Preadipocytes of 3T3-L1 cells were plated at 1.7 × 10^6 cells in T75 flasks, and grown to confluence. Two days after reaching confluence (day 0), the cells were stimulated with differentiation medium (DIM), either alone (DMEM, 10% FBS, 500 μM 3-isobutyl-1-methylxanthine, 1 μM dexamethasone, […]), or in combination with BAR502 and clofibrate at the concentration of 5 µM or with compound 1 (10 µM). On day 3, the DIM was replaced by insulin medium (DMEM, 10% fetal bovine serum, […]) alone or with the compounds. On day 7 cells were recovered.
Total mRNA extraction from U937 and 3T3.L1 was performed using Tri-Reagent (Zymo Research) and Direct-zol™ RNA MiniPrep w/Zymo-Spin™ IIC Columns (Zymo Research, Irvine, CA). […] The relative mRNA expression was calculated accordingly to the ΔCt method. […]

[2] = Stability in cryopreserved pooled human hepatocytes; assay type: in vitro ADME; details: cryopreserved pooled human hepatocytes (HEP10), read-out: t1/2 in cryopreserved hepatocytes
Method: Cryopreserved HEP10 Pooled Human Hepatocytes were thawed in 37°C water bath for 2 min and then transferred into CHRM® Medium. After centrifugation at room temperature cells were resuspended in pre-warmed Incubation Medium and diluted to correct seeding density (5 × 10^5 cells/mL).

[3] = Plasma profile / metabolite quantization in mice (LC-MS MRM); assay type: in vivo

CC[C@@H]1C2C[C@H](O)CC[C@]2(C)C2CC[C@@]3(C)C(CC[C@@H]3[C@H](C)CCOC(=O)C(C)(C)Oc3ccc(Cl)cc3)C2[C@@H]1O (some centres unmarked) [Compound 1]
Expression of markers of adipocyte differentiation (Adiponectin, Pparγ, Cebp) [1]: reduction in the expression of all markers of adipocyte differentiation | half-life [2]: 2.02 h | Plasma level of oxidized metabolite BAR505 ([3]; mice treated with compound 1, 30 mg/kg): highly abundant species | Plasma clofibric acid released, compared with that from clofibrate ([3]; mice, 30 mg/kg): superimposable | Unmodified compound in plasma ([3]; mice, 30 mg/kg, 0-8 h): not detected; also recorded: not found
